Columns and labels:
[1] = target: Vascular endothelial growth factor receptor 1 (Homo sapiens) (UniProt P17948)
[2] = target: Dual specificity tyrosine-phosphorylation-regulated kinase 1B (Homo sapiens) (UniProt Q9Y463)
[3] = target: Receptor tyrosine-protein kinase erbB-3 (Homo sapiens) (UniProt P21860)
[4] = target: Serine/threonine-protein kinase haspin (Homo sapiens) (UniProt Q8TF76)
[5] = target: Muscle, skeletal receptor tyrosine-protein kinase (Homo sapiens) (UniProt O15146)
[6] = target: Megakaryocyte-associated tyrosine-protein kinase (Homo sapiens) (UniProt P42679)
[7] = target: Phosphatidylinositol 4-phosphate 5-kinase type-1 gamma (Homo sapiens) (UniProt O60331)
[8] = target: Serine/threonine-protein kinase mTOR (Homo sapiens) (UniProt P42345)
[9] = tested on: Tyrosine-protein kinase ABL1 (Homo sapiens), P00519 [F317L]
[10] = target: Myotonin-protein kinase (Homo sapiens) (UniProt Q09013)
[11] = target: MAP/microtubule affinity-regulating kinase 3 (Homo sapiens) (UniProt P27448)
[12] = target: Tyrosine-protein kinase Yes (Homo sapiens) (UniProt P07947)
[13] = target: Ephrin type-B receptor 4 (Homo sapiens) (UniProt P54760)
[14] = target: Serine/threonine-protein kinase 32B (Homo sapiens) (UniProt Q9NY57)
[15] = target: Cyclin-dependent kinase-like 3 (Homo sapiens) (UniProt Q8IVW4)
[16] = target: Casein kinase I isoform gamma-3 (Homo sapiens) (UniProt Q9Y6M4)
[17] = target: Transient receptor potential cation channel subfamily M member 6 (Homo sapiens) (UniProt Q9BX84)
[18] = target: Cyclin-dependent kinase 14 (Homo sapiens) (UniProt O94921)
[19] = tested on: Epidermal growth factor receptor (Homo sapiens), P00533 [T790M]
[20] = target: Ribosomal protein S6 kinase alpha-5 (Homo sapiens) (UniProt O75582)
[21] = target: Cyclin-dependent kinase 3 (Homo sapiens) (UniProt Q00526)
[22] = target: Interleukin-1 receptor-associated kinase 4 (Homo sapiens) (UniProt Q9NWZ3)
[23] = target: Activin receptor type-1 (Homo sapiens) (UniProt Q04771)
[24] = target: Mast/stem cell growth factor receptor Kit (Homo sapiens) (UniProt P10721)
[25] = target: SNF-related serine/threonine-protein kinase (Homo sapiens) (UniProt Q9NRH2)
[26] = target: Calcium/calmodulin-dependent protein kinase type IV (Homo sapiens) (UniProt Q16566)
[27] = target: Microtubule-associated serine/threonine-protein kinase 1 (Homo sapiens) (UniProt Q9Y2H9)
[28] = target: Casein kinase I isoform alpha (Homo sapiens) (UniProt P48729)
[29] = target: Protein-tyrosine kinase 6 (Homo sapiens) (UniProt Q13882)
[30] = target: Serine/threonine-protein kinase RIO2 (Homo sapiens) (UniProt Q9BVS4)
[31] = target: BMP-2-inducible protein kinase (Homo sapiens) (UniProt Q9NSY1)
[32] = target: Platelet-derived growth factor receptor alpha (Homo sapiens) (UniProt P16234)
[33] = target: Dual specificity mitogen-activated protein kinase kinase 5 (Homo sapiens) (UniProt Q13163)
[34] = tested on: Fibroblast growth factor receptor 3 (Homo sapiens), P22607 [G697C]
[35] = target: Ephrin type-B receptor 2 (Homo sapiens) (UniProt P29323)
[36] = target: Serine/threonine-protein kinase PAK 3 (Homo sapiens) (UniProt O75914)
[37] = target: Serine/threonine-protein kinase SBK1 (Homo sapiens) (UniProt Q52WX2)
[38] = tested on: Phosphatidylinositol 4,5-bisphosphate 3-kinase catalytic subunit alpha isoform (Homo sapiens), P42336 [I800L]
[39] = target: G protein-coupled receptor kinase 3 (Homo sapiens) (UniProt P35626)
[40] = target: Calcium/calmodulin-dependent protein kinase type 1D (Homo sapiens) (UniProt Q8IU85)
[41] = target: Myosin light chain kinase, smooth muscle (Homo sapiens) (UniProt Q15746)
[42] = target: Tyrosine-protein kinase Srms (Homo sapiens) (UniProt Q9H3Y6)
[43] = target: Hepatocyte growth factor receptor (Homo sapiens) (UniProt P08581)
[44] = target: Calcium/calmodulin-dependent protein kinase kinase 2 (Homo sapiens) (UniProt Q96RR4)
[45] = target: Cyclin-dependent kinase-like 5 (Homo sapiens) (UniProt O76039)
[46] = target: Receptor-type tyrosine-protein kinase FLT3 (Homo sapiens) (UniProt P36888)
[47] = Compound concentration 1000.0 nM
[48] = Compound concentration 100.0 nM

Measured: residual activity

Chain of Protein-tyrosine kinase 6 (Homo sapiens) (Q13882 whole entry, looked up): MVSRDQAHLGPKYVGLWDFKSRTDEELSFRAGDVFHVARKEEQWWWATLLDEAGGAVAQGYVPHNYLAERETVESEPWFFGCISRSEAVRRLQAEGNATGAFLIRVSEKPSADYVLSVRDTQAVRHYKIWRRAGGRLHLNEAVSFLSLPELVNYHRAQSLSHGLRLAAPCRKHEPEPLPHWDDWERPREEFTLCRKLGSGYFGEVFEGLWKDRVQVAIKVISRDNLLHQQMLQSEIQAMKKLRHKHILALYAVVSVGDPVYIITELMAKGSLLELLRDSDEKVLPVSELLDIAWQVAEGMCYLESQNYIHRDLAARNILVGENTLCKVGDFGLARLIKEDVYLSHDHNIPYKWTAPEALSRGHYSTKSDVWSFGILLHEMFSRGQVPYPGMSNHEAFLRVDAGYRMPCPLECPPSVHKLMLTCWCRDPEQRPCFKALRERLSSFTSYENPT
Chain of SNF-related serine/threonine-protein kinase (Homo sapiens) (Q9NRH2 whole entry): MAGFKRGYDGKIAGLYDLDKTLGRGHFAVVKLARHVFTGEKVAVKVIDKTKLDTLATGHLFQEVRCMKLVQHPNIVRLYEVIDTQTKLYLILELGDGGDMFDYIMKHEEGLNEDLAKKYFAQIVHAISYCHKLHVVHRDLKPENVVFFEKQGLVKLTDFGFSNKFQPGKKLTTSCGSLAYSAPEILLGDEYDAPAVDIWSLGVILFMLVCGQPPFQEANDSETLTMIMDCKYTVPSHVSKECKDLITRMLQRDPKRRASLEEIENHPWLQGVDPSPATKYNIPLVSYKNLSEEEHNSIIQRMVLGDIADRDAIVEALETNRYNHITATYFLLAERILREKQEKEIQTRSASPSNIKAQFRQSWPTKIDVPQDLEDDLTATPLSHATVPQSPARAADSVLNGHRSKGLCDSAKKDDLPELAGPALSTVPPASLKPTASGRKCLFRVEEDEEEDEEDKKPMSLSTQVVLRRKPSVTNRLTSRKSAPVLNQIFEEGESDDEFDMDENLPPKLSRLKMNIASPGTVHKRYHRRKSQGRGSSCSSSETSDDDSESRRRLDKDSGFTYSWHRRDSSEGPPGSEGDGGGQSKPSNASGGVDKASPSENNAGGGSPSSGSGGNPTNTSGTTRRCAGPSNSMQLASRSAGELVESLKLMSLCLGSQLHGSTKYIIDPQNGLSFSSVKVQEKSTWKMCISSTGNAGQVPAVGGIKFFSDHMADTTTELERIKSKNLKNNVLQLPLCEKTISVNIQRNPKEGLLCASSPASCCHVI
Chain of Calcium/calmodulin-dependent protein kinase type 1D (Homo sapiens) (Q8IU85 whole entry, looked up): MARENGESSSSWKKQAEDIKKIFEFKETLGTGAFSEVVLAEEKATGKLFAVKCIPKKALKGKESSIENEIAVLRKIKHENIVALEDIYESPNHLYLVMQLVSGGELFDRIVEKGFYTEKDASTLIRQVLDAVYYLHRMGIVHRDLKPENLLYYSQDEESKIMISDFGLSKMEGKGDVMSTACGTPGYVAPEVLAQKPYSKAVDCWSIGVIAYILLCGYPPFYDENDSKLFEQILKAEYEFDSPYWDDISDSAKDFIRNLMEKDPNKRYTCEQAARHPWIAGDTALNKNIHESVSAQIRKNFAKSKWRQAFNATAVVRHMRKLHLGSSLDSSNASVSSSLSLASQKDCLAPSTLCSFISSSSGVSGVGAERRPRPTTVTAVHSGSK
Chain of Calcium/calmodulin-dependent protein kinase type IV (Homo sapiens) (Q16566 whole entry): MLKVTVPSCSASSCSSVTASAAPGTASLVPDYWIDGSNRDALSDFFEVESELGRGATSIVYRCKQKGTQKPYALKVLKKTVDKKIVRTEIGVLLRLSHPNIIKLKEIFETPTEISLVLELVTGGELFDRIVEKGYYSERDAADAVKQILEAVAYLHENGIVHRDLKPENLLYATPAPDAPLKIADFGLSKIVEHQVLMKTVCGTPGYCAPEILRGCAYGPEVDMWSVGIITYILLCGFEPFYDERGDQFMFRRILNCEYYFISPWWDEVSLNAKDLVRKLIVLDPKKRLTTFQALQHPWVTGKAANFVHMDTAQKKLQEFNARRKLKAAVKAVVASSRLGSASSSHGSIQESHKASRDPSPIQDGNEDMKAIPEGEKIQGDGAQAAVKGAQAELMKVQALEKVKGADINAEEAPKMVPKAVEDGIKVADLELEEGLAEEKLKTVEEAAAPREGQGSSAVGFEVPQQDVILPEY
Chain of Serine/threonine-protein kinase RIO2 (Homo sapiens) (Q9BVS4 whole entry, looked up): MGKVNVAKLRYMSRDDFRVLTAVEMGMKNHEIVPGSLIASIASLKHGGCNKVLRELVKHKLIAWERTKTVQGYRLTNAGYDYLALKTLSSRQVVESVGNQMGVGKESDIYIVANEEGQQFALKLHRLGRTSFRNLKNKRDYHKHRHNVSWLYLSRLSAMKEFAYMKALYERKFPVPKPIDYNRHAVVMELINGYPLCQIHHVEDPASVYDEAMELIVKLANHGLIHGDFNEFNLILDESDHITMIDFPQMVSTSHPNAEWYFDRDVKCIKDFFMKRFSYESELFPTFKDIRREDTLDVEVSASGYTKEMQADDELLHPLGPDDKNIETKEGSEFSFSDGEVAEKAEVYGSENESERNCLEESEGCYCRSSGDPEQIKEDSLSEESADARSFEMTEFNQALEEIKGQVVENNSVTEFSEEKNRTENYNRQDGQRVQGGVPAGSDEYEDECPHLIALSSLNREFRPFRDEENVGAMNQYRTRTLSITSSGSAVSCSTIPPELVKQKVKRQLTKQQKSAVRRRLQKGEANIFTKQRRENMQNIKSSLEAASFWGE
Chain of Cyclin-dependent kinase-like 5 (Homo sapiens) (O76039 whole entry): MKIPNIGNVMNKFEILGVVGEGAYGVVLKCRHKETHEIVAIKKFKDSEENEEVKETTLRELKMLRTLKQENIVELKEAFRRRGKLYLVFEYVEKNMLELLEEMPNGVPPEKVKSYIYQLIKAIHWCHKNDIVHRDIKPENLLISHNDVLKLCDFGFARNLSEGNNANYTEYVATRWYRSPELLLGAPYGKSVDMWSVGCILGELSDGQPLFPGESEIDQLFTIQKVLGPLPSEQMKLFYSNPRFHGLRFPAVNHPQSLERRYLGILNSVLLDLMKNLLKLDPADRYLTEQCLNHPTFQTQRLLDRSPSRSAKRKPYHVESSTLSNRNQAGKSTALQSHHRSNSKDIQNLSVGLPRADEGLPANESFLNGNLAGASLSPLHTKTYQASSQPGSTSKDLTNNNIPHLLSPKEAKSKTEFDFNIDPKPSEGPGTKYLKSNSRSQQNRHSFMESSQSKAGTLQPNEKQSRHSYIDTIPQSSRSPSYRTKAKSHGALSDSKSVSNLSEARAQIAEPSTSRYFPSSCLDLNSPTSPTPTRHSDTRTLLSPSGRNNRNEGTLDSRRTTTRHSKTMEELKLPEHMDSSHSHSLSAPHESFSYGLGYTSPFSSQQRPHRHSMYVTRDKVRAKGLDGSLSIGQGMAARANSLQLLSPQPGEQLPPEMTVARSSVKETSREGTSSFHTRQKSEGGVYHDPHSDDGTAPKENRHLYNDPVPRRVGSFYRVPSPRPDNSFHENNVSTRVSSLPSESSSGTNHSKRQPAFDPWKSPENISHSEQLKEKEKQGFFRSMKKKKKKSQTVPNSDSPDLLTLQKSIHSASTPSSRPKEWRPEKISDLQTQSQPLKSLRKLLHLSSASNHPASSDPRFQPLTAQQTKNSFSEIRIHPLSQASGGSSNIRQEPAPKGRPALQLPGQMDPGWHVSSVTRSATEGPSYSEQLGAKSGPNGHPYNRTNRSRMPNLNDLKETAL
Chain of Megakaryocyte-associated tyrosine-protein kinase (Homo sapiens) (P42679 whole entry): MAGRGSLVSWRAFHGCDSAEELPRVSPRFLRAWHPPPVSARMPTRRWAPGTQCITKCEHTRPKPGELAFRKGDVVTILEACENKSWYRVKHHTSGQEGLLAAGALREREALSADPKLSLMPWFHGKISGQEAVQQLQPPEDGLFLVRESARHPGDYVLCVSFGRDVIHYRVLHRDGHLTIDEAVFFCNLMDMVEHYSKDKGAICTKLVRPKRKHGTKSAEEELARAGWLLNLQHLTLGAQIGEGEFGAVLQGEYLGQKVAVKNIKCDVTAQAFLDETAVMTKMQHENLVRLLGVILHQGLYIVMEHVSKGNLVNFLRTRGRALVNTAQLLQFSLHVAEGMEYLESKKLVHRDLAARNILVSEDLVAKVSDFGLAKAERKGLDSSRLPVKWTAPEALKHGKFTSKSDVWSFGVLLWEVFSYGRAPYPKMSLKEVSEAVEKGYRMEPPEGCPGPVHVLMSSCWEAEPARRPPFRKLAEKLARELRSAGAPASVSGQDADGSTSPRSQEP
Chain of Serine/threonine-protein kinase PAK 3 (Homo sapiens) (O75914 whole entry, looked up): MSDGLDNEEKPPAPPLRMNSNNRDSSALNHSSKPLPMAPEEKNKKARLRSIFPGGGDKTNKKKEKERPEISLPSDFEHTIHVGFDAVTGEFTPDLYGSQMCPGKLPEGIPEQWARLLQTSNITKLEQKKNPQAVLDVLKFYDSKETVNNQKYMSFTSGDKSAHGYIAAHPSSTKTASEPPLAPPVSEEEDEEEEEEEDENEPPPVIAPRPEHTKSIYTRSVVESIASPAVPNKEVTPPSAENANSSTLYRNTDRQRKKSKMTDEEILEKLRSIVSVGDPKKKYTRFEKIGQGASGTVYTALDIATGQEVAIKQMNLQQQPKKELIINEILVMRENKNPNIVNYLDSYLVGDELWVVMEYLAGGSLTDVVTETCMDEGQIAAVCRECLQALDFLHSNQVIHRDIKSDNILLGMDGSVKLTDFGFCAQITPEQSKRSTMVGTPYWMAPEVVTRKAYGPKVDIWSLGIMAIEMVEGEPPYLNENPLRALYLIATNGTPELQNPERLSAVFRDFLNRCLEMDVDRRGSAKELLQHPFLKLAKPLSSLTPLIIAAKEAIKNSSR
Chain of Casein kinase I isoform alpha (Homo sapiens) (P48729 2-337 limits assumed): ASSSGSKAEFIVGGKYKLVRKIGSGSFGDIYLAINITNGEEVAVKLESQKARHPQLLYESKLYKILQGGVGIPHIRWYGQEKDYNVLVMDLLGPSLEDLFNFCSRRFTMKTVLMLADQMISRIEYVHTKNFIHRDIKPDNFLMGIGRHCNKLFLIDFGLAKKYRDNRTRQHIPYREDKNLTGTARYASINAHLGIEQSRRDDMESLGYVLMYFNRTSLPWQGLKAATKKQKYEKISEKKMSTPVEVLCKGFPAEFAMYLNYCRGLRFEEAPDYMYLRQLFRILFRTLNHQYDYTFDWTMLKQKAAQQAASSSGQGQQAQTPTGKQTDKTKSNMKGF

CN(C)c1ncnc(-c2ccc3nc(Nc4cc(CN5CCN(C(=O)CC(F)(F)F)CC5)ccn4)[nH]c3c2)c1Cl [BAY-440]
inactive: [1]; [47] 100% | [2]; [47] 100% | [3]; [47] 63% | [4]; [47] 100% | [5]; [47] 100% | [6]; [47] 69% | [7]; [47] 100% | [8]; [47] 100% | [9]; [47] 57% | [10]; [47] 91% | [11]; [47] 100% | [12]; [47] 76% | [13]; [47] 100% | [14]; [47] 100% | [15]; [47] 86% | [16]; [47] 100% | [17]; [47] 100% | [18]; [47] 100% | [19]; [47] 100% | [20]; [47] 85% | [21]; [47] 86% | [23]; [47] 88% | [24]; [47] 100% | [25]; [47] 100% | [26]; [47] 89% | [27]; [47] 86% | [28]; [47] 89% | [29]; [47] 86% | [30]; [47] 81% | [31]; [47] 100% | [32]; [47] 61% | [34]; [47] 100% | [35]; [47] 100% | [36]; [47] 81% | [37]; [47] 71% | [39]; [47] 78% | [40]; [47] 100% | [41]; [47] 68% | [42]; [47] 88% | [43]; [47] 69% | [44]; [47] 88% | [45]; [47] 66% | [46]; [47] 71%
active: [22]; [47] 39% | [33]; [47] 1.8% | [38]; [47] 35%

C[C@H](c1ccnc(Nc2nc3ccc(-c4cc(N(C)C)ncn4)cc3[nH]2)c1)N1CCN(C(=O)CC(F)(F)F)CC1 [BAY-985]
active: [33]; [48] 8.5%
inactive: [1]; [48] 100% | [2]; [48] 84% | [3]; [48] 88% | [4]; [48] 100% | [5]; [48] 97% | [6]; [48] 95% | [7]; [48] 89% | [8]; [48] 75% | [9]; [48] 100% | [10]; [48] 100% | [11]; [48] 100% | [12]; [48] 92% | [13]; [48] 100% | [14]; [48] 100% | [15]; [48] 86% | [16]; [48] 100% | [17]; [48] 100% | [18]; [48] 100% | [19]; [48] 100% | [20]; [48] 61% | [21]; [48] 100% | [22]; [48] 100% | [23]; [48] 100% | [24]; [48] 88% | [25]; [48] 100% | [26]; [48] 100% | [27]; [48] 100% | [28]; [48] 100% | [29]; [48] 85% | [30]; [48] 100% | [31]; [48] 100% | [32]; [48] 99% | [34]; [48] 100% | [35]; [48] 93% | [36]; [48] 100% | [37]; [48] 85% | [38]; [48] 100% | [39]; [48] 100% | [40]; [48] 95% | [41]; [48] 100% | [42]; [48] 97% | [43]; [48] 100% | [44]; [48] 77% | [45]; [48] 100% | [46]; [48] 67%
